Source: ChEMBL document CHEMBL1140870, “Interrogating the mechanism of a tight binding inhibitor of AIR carboxylase” (Bioorg Med Chem, 2009)

molecular target: T1, Multifunctional protein ADE2 (Gallus gallus, UniProt P38024); assay: Inhibition of Gallus gallus AIR carboxylase by CAIR decarboxylation assay
T1 sequence (P38024 whole entry): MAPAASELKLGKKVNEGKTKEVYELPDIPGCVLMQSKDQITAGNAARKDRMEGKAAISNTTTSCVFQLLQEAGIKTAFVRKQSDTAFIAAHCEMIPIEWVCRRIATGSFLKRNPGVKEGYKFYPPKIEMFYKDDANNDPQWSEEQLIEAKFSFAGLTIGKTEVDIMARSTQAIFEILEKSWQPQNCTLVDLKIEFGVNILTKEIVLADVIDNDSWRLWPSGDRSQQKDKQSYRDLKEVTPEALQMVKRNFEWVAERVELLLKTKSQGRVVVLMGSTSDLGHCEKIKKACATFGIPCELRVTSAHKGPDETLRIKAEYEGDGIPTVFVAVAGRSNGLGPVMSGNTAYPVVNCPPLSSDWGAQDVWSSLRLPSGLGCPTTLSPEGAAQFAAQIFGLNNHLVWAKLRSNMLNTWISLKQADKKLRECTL

Structure (SMILES)	Ki	IC50
Nc1c(C=O)ncn1[C@@H]1O[C@H](COP(=O)(O)O)[C@@H](O)[C@H]1O	62 µM	
Nc1c(C(=O)O)cnn1[C@@H]1O[C@H](COP(=O)(O)O)[C@@H](O)[C@H]1O	6 µM	
Nc1c(C(=O)O)nnn1[C@@H]1O[C@H](COP(=O)(O)O)[C@@H](O)[C@H]1O	2.8 µM	
Nc1c([N+](=O)[O-])ncn1[C@@H]1O[C@H](COP(=O)(O)O)[C@@H](O)[C@H]1O	0.00034 µM	
O=[N+]([O-])c1cn([C@@H]2O[C@H](COP(=O)(O)O)[C@@H](O)[C@H]2O)cn1	1.3 µM	
O=[N+]([O-])c1ccn([C@@H]2O[C@H](COP(=O)(O)O)[C@@H](O)[C@H]2O)c1		> 100 µM
O=[N+]([O-])c1cnn([C@@H]2O[C@H](COP(=O)(O)O)[C@@H](O)[C@H]2O)c1	22 µM	
Nc1c([N+](=O)[O-])cnn1[C@@H]1O[C@H](COP(=O)(O)O)[C@@H](O)[C@H]1O	0.39 µM	

system: not listed separately; assay: Dissociation constant, pKa of the compound; format: physicochemical

Structure (SMILES)	pKa
Nc1c([N+](=O)[O-])ncn1[C@@H]1O[C@H](COP(=O)(O)O)[C@@H](O)[C@H]1O	0.3
